Test results from patent publication US20070185116A1, “Bicyclic compounds” (TANABE SEIYAKU CO., LTD., priority 2004, published 2007).

Legend:
[1] = system: isolated rabbit urinary bladder; experiment: Relaxation effect on potassium-induced contraction of isolated rabbit urinary bladder; type: cell-based; settings: Oryctolagus cuniculus; strips pre-contracted with high-K+ (30 mM) Krebs solution; relaxation as percentage of maximum relaxation by 10^-4 M papaverine; read-out: IC50 value (50% relaxation concentration)
Protocol: [Relaxation Effect on Potassium-Induced Contraction of Isolated Rabbit Urinary Bladder]
Urinary bladder was isolated from Male NZW rabbits (body weight: 2.0-3.5 kg) and immersed in ice-cold Krebs-bicarbonate solution (in mM: 118 NaCl, 4.7 KCl, 2.55 CaCl2, 1.18 MgSO4, 1.18 KH2PO4, 24.88 NaHCO3 and 11.1 glucose). The urinary bladder was cut into longitudinal strips (5 mm length, 3-4 mm width) after mucosal layer was removed.
Preparations were mounted in organ baths containing 10 ml of Krebs solution maintained at 37° C. and gassed with 95% O2/5% CO2. Accordingly, preparations were stretched with an initial tension of 2.0±1.0 g, and changes in isometric tension were measured by force-displacement transducer. The preparations were pre-contracted by changing organ-bath solution into high-K^+ (30 mM) Krebs solution (in mM: 118 NaCl, […], 2.55 CaCl2, 1.18 MgSO4, 1.18 KH2PO4, 24.88 NaHCO3 and 11.1 glucose).
After stable tension was obtained, compounds were added into organ baths cumulatively (10^−8 M-10^−4 M). The effects of compounds were expressed as a percentage of the maximum relaxation produced by 10^−4 M papaverine as 100%. 50% relaxation concentration (IC50) was calculated and IC50 value range (μM) of compounds of the present invention was shown in the following Table 1 with a rank of A, B or C.
These ranges are as mentioned below.

[2] = system: rhythmic bladder contractions induced by substance P; experiment: Inhibitory effect on the rhythmic bladder contractions induced by substance P in anesthetized rats; type: in vivo, rat; settings: 0.25 mg/kg, intravenous administration; urethane-anesthetized female Sprague-Dawley rats; observed for 35 minutes

IC50 [1]	Compound	100% inhibition time: Time (min) during which the frequency of the rhythmic contraction had been completely inhibited [2]
500 to 1000 nM	Cc1ccc(-c2ncc(Cl)cc2-c2ccc(C(N)=O)cc2)cn1 [Example 1]	20.5 min
500 to 1000 nM	Cc1ccccc1-c1ncc(Cl)cc1-c1ccc(C(N)=O)cc1 [Example 43]	>35 min
